Test results reported in PubChem BioAssay AID2060354 (Molecular Pharmacology Branch, DTP, NCI, 2025).

Tested on: 519858-162-T-J1-PDC spheroid growth inhibition
Experiment: Anticancer human tumor 519858-162-T-J1-PDC patient-derived colon adenocarcinoma cell line growth inhibition [TAK]
Details: spheroids with HUVEC and MSC; for IC50: curve of first compound; for viability, T/C: stronger effect = lower value
From the text: Combinatorial screen of targeted agents with TAK-243 and ipatasertib in multi-cell type tumor spheroids
A high-throughput screen of multi-cell type tumor spheroids was designed to identify active combinations of targeted small molecules and TAK-243 or ipatasertib. Complex spheroids include a stromal component modeled by human endothelial cells (HUVEC) and fibroblasts modeled by human mesenchymal stem cells (MSCs). The concentration ranges selected for each drug and investigational agent were based upon clinically achievable concentrations if the clinical Cmax of the agent was known.
Compounds. The drugs and investigational agents: TAK-243 (785004), ipatasertib (767898), everolimus (733504), selumetinib (741078), bortezomib (756655), trametinib (758246), ixazomib (758254), vemurafenib (761431), dabrafenib (764134), sapanisertib (764658), alpelisib (765974), and copanlisib (816437), were obtained from the National Cancer Institute (NCI) Developmental Therapeutics Program Chemical Repository. The FDA-approved anticancer drug set is available from the NCI Developmental Therapeutics Program. […] The stock solutions were prepared in dimethyl sulfoxide (DMSO, Sigma-Aldrich, St. Louis, MO, cat. D2650) at 800-fold the tested concentration and stored at -70 degrees C prior to their use. All drugs and investigational agents were tested over a range starting from a high concentration at or near the clinical Cmax and decreasing in half-log increments. If the clinical Cmax for an agent had not been determined, the highest concentration tested was 10 microM.
NCI60 Cell Culture. NCI60 cell lines were obtained from the NCI Developmental Therapeutics Program Tumor Repository. For each lot of cells, the Repository performed Applied Biosystems AmpFLSTR Identifiler testing with PCR amplification to confirm consistency with the published Identifier STR profile for each cell line. Cells were kept in continuous culture for no more than 20 passages. The optimal seeding densities for each of the cell lines at each time point assessed were determined prior to performing the concentration response studies. Briefly, the NCI60 human tumor lines were grown as monolayers in RPMI 1640 medium supplemented with 10% FBS and 2 mmol/L L-glutamine.
An additional 2 lines were from the NCI60 cell line panel including melanomas, MALME-3M and SK-MEL-2. Pooled donor human umbilical vein endothelial cells (HUVEC, Lonza, cat. CC-2519) and human mesenchymal stem cells (hMSC, Lonza, cat. PT-2501) were purchased from Lonza (Walkersville, MD).
PDMR cell lines were grown in complete medium (DC medium): Dulbecco's modified Eagle's medium (DMEM)/F12 supplemented with 5% fetal bovine serum (FBS), 2 mM L-glutamine, 100 U/mL penicillin and 100 µg/ml streptomycin, 0.4 µg/ml hydrocortisone, 10 ng/ml epidermal growth factor (EGF) recombinant human protein, 24 µg/mL adenine, and 0.1 mg/mL primocin. During culture from frozen stock vials, PDMR cells were cultured in the same medium containing 10 µM Y-27632 (see Table 3). The PDCs were cultured in complete DMEM/F12 media without 10 microM Y-27632 dihydrochloride for at least two passages prior to the screen. The pooled donor HUVEC and hMSC were cultured in endothelial cell growth medium 2 (PromoCell, Heidelberg, Germany, cat. C-22011) and mesenchymal stem cell growth medium 2 (PromoCell, cat. C-28009), respectively. For all experiments, HUVEC and hMSC were used at passages </=5.
For the pre-screen, cell seeding densities were determined from a titration spanning the range from 5,000 to 313 cells per well. The mct-spheroids including 60% malignant cells, 25% HUVEC and 15% MSC dispensed as a mixture into U-bottom Ultra-Low Attachment 384-well plates (Corning, NY)
High-throughput Drug Combination Screening.
Prior to their inoculation into 384-well plates, malignant cells, HUVEC, and hMSC were removed from T flasks using TrypLE express (Thermo Fisher Scientific, cat. 12605036) and harvested by centrifugation for 5 min at 233 x g. […]
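Also: spheroids exposed to drugs for 7 days.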

CC(=O)Nc1cccc(-n2c(=O)n(C3CC3)c(=O)c3c(Nc4ccc(I)cc4F)n(C)c(=O)c(C)c32)c1 + CC(C)NCC(C(=O)N1CCN(c2ncnc3c2C(C)CC3O)CC1)c1ccc(Cl)cc1
IC50 (second compound 0.3 µM): 5.63 nM
IC50 (second compound 0.949 µM): 5.24 nM
IC50 (second compound 3 µM): 5.89 nM
IC50 (second compound 9.49 µM): 6.24 nM
IC50 (second compound 30 µM): 9.07 nM
viability, T/C (second compound 0.3 µM, first compound 94.9 pM): 78.5%
viability, T/C (second compound 0.3 µM, first compound 0.0003 µM): 87.2%
viability, T/C (second compound 0.3 µM, first compound 0.000949 µM): 72%
viability, T/C (second compound 0.3 µM, first compound 0.003 µM): 62.6%
viability, T/C (second compound 0.3 µM, first compound 0.00949 µM): 40.1%
viability, T/C (second compound 0.3 µM, first compound 0.03 µM): 18.1%
viability, T/C (second compound 0.949 µM, first compound 94.9 pM): 99.8%
viability, T/C (second compound 0.949 µM, first compound 0.0003 µM): 107%
viability, T/C (second compound 0.949 µM, first compound 0.000949 µM): 69%
viability, T/C (second compound 0.949 µM, first compound 0.003 µM): 66.1%
viability, T/C (second compound 0.949 µM, first compound 0.00949 µM): 37.8%
viability, T/C (second compound 0.949 µM, first compound 0.03 µM): 18.4%
viability, T/C (second compound 3 µM, first compound 94.9 pM): 82.7%
viability, T/C (second compound 3 µM, first compound 0.0003 µM): 97.7%
viability, T/C (second compound 3 µM, first compound 0.000949 µM): 86.2%
viability, T/C (second compound 3 µM, first compound 0.003 µM): 65.6%
viability, T/C (second compound 3 µM, first compound 0.00949 µM): 39.5%
viability, T/C (second compound 3 µM, first compound 0.03 µM): 26.5%
viability, T/C (second compound 9.49 µM, first compound 94.9 pM): 70.6%
viability, T/C (second compound 9.49 µM, first compound 0.0003 µM): 78.9%
viability, T/C (second compound 9.49 µM, first compound 0.000949 µM): 73.2%
viability, T/C (second compound 9.49 µM, first compound 0.003 µM): 62.7%
viability, T/C (second compound 9.49 µM, first compound 0.00949 µM): 42.5%
viability, T/C (second compound 9.49 µM, first compound 0.03 µM): 18.2%
viability, T/C (second compound 30 µM, first compound 94.9 pM): 109%
viability, T/C (second compound 30 µM, first compound 0.0003 µM): 77.6%
viability, T/C (second compound 30 µM, first compound 0.000949 µM): 95.4%
viability, T/C (second compound 30 µM, first compound 0.003 µM): 68.5%
viability, T/C (second compound 30 µM, first compound 0.00949 µM): 48.3%
viability, T/C (second compound 30 µM, first compound 0.03 µM): 21.8%

CC(C)CC(NC(=O)C(Cc1ccccc1)NC(=O)c1cnccn1)B(O)O (stereo not given) + CC(C)NCC(C(=O)N1CCN(c2ncnc3c2C(C)CC3O)CC1)c1ccc(Cl)cc1
IC50 (second compound 0.3 µM): > 10 nM
IC50 (second compound 0.949 µM): > 10 nM
IC50 (second compound 3 µM): > 10 nM
IC50 (second compound 9.49 µM): > 10 nM
IC50 (second compound 30 µM): > 10 nM
viability, T/C (second compound 0.3 µM, first compound 31.6 pM): 84.6%
viability, T/C (second compound 0.3 µM, first compound 0.0001 µM): 80.4%
viability, T/C (second compound 0.3 µM, first compound 0.000316 µM): 75.7%
viability, T/C (second compound 0.3 µM, first compound 0.001 µM): 92.6%
viability, T/C (second compound 0.3 µM, first compound 0.00316 µM): 83.2%
viability, T/C (second compound 0.3 µM, first compound 0.01 µM): 63.8%
viability, T/C (second compound 0.949 µM, first compound 31.6 pM): 83.7%
viability, T/C (second compound 0.949 µM, first compound 0.0001 µM): 97.6%
viability, T/C (second compound 0.949 µM, first compound 0.000316 µM): 86.4%
viability, T/C (second compound 0.949 µM, first compound 0.001 µM): 88.9%
viability, T/C (second compound 0.949 µM, first compound 0.00316 µM): 95.6%
viability, T/C (second compound 0.949 µM, first compound 0.01 µM): 69.7%
viability, T/C (second compound 3 µM, first compound 31.6 pM): 84.4%
viability, T/C (second compound 3 µM, first compound 0.0001 µM): 84.7%
viability, T/C (second compound 3 µM, first compound 0.000316 µM): 67.9%
viability, T/C (second compound 3 µM, first compound 0.001 µM): 84.4%
viability, T/C (second compound 3 µM, first compound 0.00316 µM): 78.7%
viability, T/C (second compound 3 µM, first compound 0.01 µM): 77.1%
viability, T/C (second compound 9.49 µM, first compound 31.6 pM): 100%
viability, T/C (second compound 9.49 µM, first compound 0.0001 µM): 88.2%
viability, T/C (second compound 9.49 µM, first compound 0.000316 µM): 110%
viability, T/C (second compound 9.49 µM, first compound 0.001 µM): 83.2%
viability, T/C (second compound 9.49 µM, first compound 0.00316 µM): 66.2%
viability, T/C (second compound 9.49 µM, first compound 0.01 µM): 82.8%
viability, T/C (second compound 30 µM, first compound 31.6 pM): 85.2%
viability, T/C (second compound 30 µM, first compound 0.0001 µM): 97.1%
viability, T/C (second compound 30 µM, first compound 0.000316 µM): 96.7%
viability, T/C (second compound 30 µM, first compound 0.001 µM): 88.4%
viability, T/C (second compound 30 µM, first compound 0.00316 µM): 85.2%
viability, T/C (second compound 30 µM, first compound 0.01 µM): 78%
